Experimental data taken from publication PMC12548414 (Journal of Bacteriology, 2025).
Values after ≈ are worked out from the molar mass of the structure shown.

Key:
[1] = tested on: T1, E. coli pLC1021 (luc-trpAt trans-translation reporter); set-up: species or system Escherichia coli pLC1021; luc-trpAt non-stop luciferase reporter; luminescence rises when trans-translation is inhibited; normalized to KKL-35 and DMSO; conditions: 2 h, 20 µM
T1 construct: pLC1021 luc-trpAt reporter strain
Description: The luciferase screen was performed as previously described ([16]). […] 48 µL of cells was transferred to white 96-well plates, and 2 µL DMSO or 20 µM compound, or 20 µM KKL-35 was added. Plates were sealed with adhesive film, vortexed gently to mix, and incubated at room temperature for 2 h. 50 µL Bright-Glo reagent (Promega, Madison, WI) was added to each well, and the plates were sealed with adhesive film, vortexed vigorously, and incubated for an additional 10 min at room temperature. Luminescence was measured at 560 nm using a SpectraMax i3 microplate reader and readings for each plate were normalized to the average of three KKL-35-treated wells (positive control) and three DMSO-treated wells (negative control) within the plate to correct for plate-to-plate and day-to-day variations. Results from at least two biological repeats were averaged, and GraphPad Prism was used to plot the data. We screened a library of 1,601 anti-tubercular small molecules for their ability to inhibit trans-translation using a luciferase reporter in Escherichia coli. In this luc-trpAt reporter, the firefly luciferase gene has a trpA transcriptional terminator before the stop codon, such that luciferase is translated from a non-stop mRNA ([16]). When trans-translation is active, the luciferase will be tagged and degraded, but when trans-translation is inhibited, active luciferase will accumulate, resulting in a luminescent signal when luciferin is added. Luciferase activity was measured after growth in the presence of compounds from the library at 20 µM, using the known trans-translation inhibitor KKL-35 as a positive control (Fig. 1A) ([16], [17]). Compounds with activity one standard deviation above the median were scored as positive (Fig. S1 and Table S1).

B. anthracis = assay: microbe, parasite or virus in culture; conditions: Bacillus anthracis, 20 h, read-out: MIC
ribosomal protein bL12 [2] = target: T2, ribosomal protein bL12 (Escherichia coli, UniProt P0A7K2); assay: biochemical; type: binding
T2 construct: gene rplL
T2 sequence (P0A7K2 2-121): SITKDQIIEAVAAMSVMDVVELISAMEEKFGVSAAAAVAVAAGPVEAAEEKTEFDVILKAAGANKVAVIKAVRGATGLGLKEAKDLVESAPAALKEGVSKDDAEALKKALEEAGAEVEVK

ribosomal protein bL12 [3] = target: T3, ribosomal protein bL12 (Mycobacterium tuberculosis, UniProt P9WHE3); assay: biochemical; type: binding
T3 construct: gene rplL; 6His-tagged M. tuberculosis bL12
T3 sequence (P9WHE3 1-130): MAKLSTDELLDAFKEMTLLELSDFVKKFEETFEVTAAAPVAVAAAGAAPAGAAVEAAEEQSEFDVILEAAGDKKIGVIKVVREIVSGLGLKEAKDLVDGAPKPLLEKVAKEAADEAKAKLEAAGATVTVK

E. coli ΔtolC = tested on: T4, E. coli ΔtolC; assay: microbe, parasite or virus in culture; set-up: species or system Escherichia coli ΔtolC; broth microdilution MIC, lowest concentration with no visible growth; conditions: Escherichia coli, 20 h, read-out: MIC
T4 construct: ΔtolC

M. tuberculosis = assay: microbe, parasite or virus in culture; set-up: species or system Mycobacterium tuberculosis H37Rv ΔRD1 ΔpanCD; conditions: Mycobacterium tuberculosis, 168 h, read-out: MIC

Structure (SMILES) | % activation [1] | other results
CC(C)[C@H]1OC(=O)[C@H](Cc2ccccc2)N(C)C(=O)[C@@H](C(C)C)OC(=O)[C@H](Cc2ccccc2)N(C)C(=O)[C@@H](C(C)C)OC(=O)[C@H](Cc2ccccc2)N(C)C1=O [KKL-0304] | 0% | –
O=C(Nc1nc(NC(=O)c2ccco2)n(-c2ccccc2)n1)c1ccccc1 [KKL-1005, N-(5-benzamido-2-phenyl-1,2,4-triazol-3-yl)furan-2-carboxamide] | – | MIC (B. anthracis): 9.3 mg/L (≈ 24.9 µM); Kd (ribosomal protein bL12 [2]): 8 ± 2 µM; Kd (ribosomal protein bL12 [3]): 4 ± 0.2 µM; MIC (E. coli ΔtolC): 9.3 mg/L (≈ 24.9 µM); MIC (M. tuberculosis): 4.7 mg/L (≈ 12.6 µM)
CCc1ccc([C@@H]2C[C@H](C(F)(F)F)n3ncc(C(=O)NCc4ccc(OC)cc4)c3N2)cc1 [KKL-1692] | 0% | –
Cc1cccc(-c2nc(Nc3ccncn3)c3sccc3n2)n1 [KKL-1695] | 0% | –
Cc1cccc(-c2nc(Nc3ccncn3)c3c(C)csc3n2)n1 [KKL-1712] | 6% | –
O=C(NC12CC3CC(CC(C3)C1)C2)c1cc2cc(Cl)ccc2[nH]1 [KKL-1781] | 0% | –
c1cc2c(s1)CCOC21CCN(Cc2ccc3c(c2)OCCO3)CC1 [KKL-1815] | 0% | –
COc1ccc(CCNc2cc(-c3ccccc3)nc3ncnn23)cc1 [KKL-1831] | 3% | –
Cc1ccc2nc(C)c(C(=O)NCc3cccs3)n2c1 [KKL-1863] | 4% | –
CNc1nc(SC)nc2ccccc12 [KKL-1869] | 0% | –
